Common to all, as to test: relative viability (nuclei count vs DMSO), 5 days (fraction); higher = more cells survive
Compound in the assay “Crenolanib + Palbociclib”: CC1(COc2ccc3c(c2)ncn3-c2ccc3cccc(N4CCC(N)CC4)c3n2)COC1 [Crenolanib] + CC(=O)c1c(C)c2cnc(Nc3ccc(N4CCNCC4)cn3)nc2n(C2CCCC2)c1=O [Palbociclib] (partner 0.5 µM)
Summed up: (§1)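 Five library-drug doses in √10 steps were combined with a fixed anchor-drug dose, or a single drug was given alone, by pin tool to lung cancer cell lines in 1536-well plates the day after seeding. Nuclei were stained and counted after 5 days. Relative viability is the nuclei count in treated wells over that in vehicle wells, taken as the median of duplicate plates.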

Compound in the assay “Crenolanib + Alpelisib”: CC1(COc2ccc3c(c2)ncn3-c2ccc3cccc(N4CCC(N)CC4)c3n2)COC1 [Crenolanib] + Cc1nc(NC(=O)N2CCC[C@H]2C(N)=O)sc1-c1ccnc(C(C)(C)C(F)(F)F)c1 [Alpelisib] (partner 2 µM)
Summed up:
as §1

Compound in the assay “Tivantinib + Pictilisib”: O=C1NC(=O)[C@@H](c2cn3c4c(cccc24)CCC3)[C@@H]1c1c[nH]c2ccccc12 [Tivantinib] + CS(=O)(=O)N1CCN(Cc2cc3nc(-c4cccc5[nH]ncc45)nc(N4CCOCC4)c3s2)CC1 [Pictilisib] (partner 1 µM)
Summed up:
as §1

Compound in the assay “Tivantinib + Pemetrexed”: O=C1NC(=O)[C@@H](c2cn3c4c(cccc24)CCC3)[C@@H]1c1c[nH]c2ccccc12 [Tivantinib] + Nc1nc2[nH]cc(CCc3ccc(C(=O)N[C@@H](CCC(=O)O)C(=O)O)cc3)c2c(=O)[nH]1 [Pemetrexed] (partner 0.2 µM)
Summed up: as §1

In the case of NCI-H441, the relative viability in the assay with Crenolanib + Palbociclib (first compound 0.01 µM) was determined as 0.261; in the assay with Crenolanib + Palbociclib (first compound 0.03162 µM) it was 0.236; with Crenolanib + Palbociclib (first compound 0.1 µM) it was 0.217; with Crenolanib + Palbociclib (first compound 0.3162 µM) it was 0.262; in the assay with Crenolanib + Palbociclib (first compound 1 µM) it was 0.242; in the assay with Crenolanib + Alpelisib (first compound 0.01 µM), 0.708. Moreover, the relative viability with Crenolanib + Alpelisib (first compound 0.1 µM) was 0.888; with Crenolanib + Alpelisib (first compound 0.3162 µM) it was 0.732; with Crenolanib + Alpelisib (first compound 1 µM), 0.792; with Tivantinib + Pictilisib (first compound 0.01 µM), 0.499; with Tivantinib + Pictilisib (first compound 0.03162 µM), 0.451; with Tivantinib + Pictilisib (first compound 0.1 µM) it was 0.601. The relative viability was determined as 0.242 with Tivantinib + Pictilisib (first compound 0.3162 µM); 0.294 in the assay with Tivantinib + Pemetrexed (first compound 0.01 µM); 0.254 with Tivantinib + Pemetrexed (first compound 0.03162 µM); 0.254 with Tivantinib + Pemetrexed (first compound 0.1 µM); 0.282 with Tivantinib + Pemetrexed (first compound 0.3162 µM).
For NCI-H2170, the relative viability with Crenolanib + Palbociclib (first compound 0.01 µM) was 0.384; with Crenolanib + Palbociclib (first compound 0.03162 µM), 0.432; with Crenolanib + Palbociclib (first compound 0.1 µM), 0.38; with Crenolanib + Palbociclib (first compound 0.3162 µM), 0.422; in the assay with Crenolanib + Palbociclib (first compound 1 µM), 0.417; in the assay with Crenolanib + Alpelisib (first compound 0.01 µM), 0.856. Further, the relative viability with Crenolanib + Alpelisib (first compound 0.03162 µM) was 0.815; with Crenolanib + Alpelisib (first compound 0.1 µM), 0.814; with Crenolanib + Alpelisib (first compound 0.3162 µM), 0.951; with Crenolanib + Alpelisib (first compound 1 µM), 0.912; with Tivantinib + Pictilisib (first compound 0.01 µM), 0.298; in the assay with Tivantinib + Pictilisib (first compound 0.03162 µM) it was 0.222. In addition, the relative viability with Tivantinib + Pictilisib (first compound 0.1 µM) came out at 0.33; in the assay with Tivantinib + Pemetrexed (first compound 0.01 µM), 0.288; with Tivantinib + Pemetrexed (first compound 0.03162 µM) it was 0.285; with Tivantinib + Pemetrexed (first compound 0.1 µM), 0.244.
Take NCI-H1395: the relative viability in the assay with Crenolanib + Palbociclib (first compound 0.01 µM) stood at 0.622; in the assay with Crenolanib + Palbociclib (first compound 0.03162 µM), 0.628; with Crenolanib + Palbociclib (first compound 0.1 µM), 0.677; with Crenolanib + Palbociclib (first compound 0.3162 µM) it was 0.635; with Crenolanib + Palbociclib (first compound 1 µM), 0.628; in the assay with Crenolanib + Alpelisib (first compound 0.01 µM) it was 1.1. Also, the relative viability with Crenolanib + Alpelisib (first compound 0.03162 µM) came out at 1.14; in the assay with Crenolanib + Alpelisib (first compound 0.1 µM) it was 1.1; in the assay with Crenolanib + Alpelisib (first compound 0.3162 µM), 0.914; in the assay with Crenolanib + Alpelisib (first compound 1 µM) it was 0.938; with Tivantinib + Pictilisib (first compound 0.01 µM), 0.581; with Tivantinib + Pictilisib (first compound 0.03162 µM), 0.595. Further, the relative viability with Tivantinib + Pictilisib (first compound 0.1 µM) turned out to be 0.571; in the assay with Tivantinib + Pictilisib (first compound 0.3162 µM) it was 0.61; in the assay with Tivantinib + Pemetrexed (first compound 0.01 µM), 1.03; with Tivantinib + Pemetrexed (first compound 0.03162 µM) it was 0.843; in the assay with Tivantinib + Pemetrexed (first compound 0.1 µM) it was 0.975; in the assay with Tivantinib + Pemetrexed (first compound 0.3162 µM) it was 0.782.
As to LC-2-ad, the relative viability in the assay with Crenolanib + Palbociclib (first compound 0.01 µM) was 0.476; with Crenolanib + Palbociclib (first compound 0.03162 µM), 0.466; in the assay with Crenolanib + Palbociclib (first compound 0.1 µM) it was 0.505; in the assay with Crenolanib + Palbociclib (first compound 0.3162 µM), 0.541; in the assay with Crenolanib + Palbociclib (first compound 1 µM), 0.442; in the assay with Crenolanib + Alpelisib (first compound 0.01 µM), 0.945. The relative viability with Crenolanib + Alpelisib (first compound 0.03162 µM) was determined as 0.886; with Crenolanib + Alpelisib (first compound 0.1 µM), 0.815; with Crenolanib + Alpelisib (first compound 0.3162 µM), 1.03; with Crenolanib + Alpelisib (first compound 1 µM) it was 0.89; with Tivantinib + Pictilisib (first compound 0.01 µM), 0.462; in the assay with Tivantinib + Pictilisib (first compound 0.03162 µM) it was 0.354. For the same cell line, the relative viability in the assay with Tivantinib + Pictilisib (first compound 0.1 µM) turned out to be 0.479; with Tivantinib + Pictilisib (first compound 0.3162 µM) it was 0.511; in the assay with Tivantinib + Pemetrexed (first compound 0.01 µM), 0.3; with Tivantinib + Pemetrexed (first compound 0.03162 µM), 0.252; with Tivantinib + Pemetrexed (first compound 0.1 µM), 0.276; with Tivantinib + Pemetrexed (first compound 0.3162 µM), 0.259.
NCI-H358: the relative viability in the assay with Crenolanib + Palbociclib (first compound 0.01 µM) stood at 0.164; with Crenolanib + Palbociclib (first compound 0.03162 µM) it was 0.131; with Crenolanib + Palbociclib (first compound 0.1 µM), 0.136; with Crenolanib + Palbociclib (first compound 0.3162 µM), 0.135; with Crenolanib + Palbociclib (first compound 1 µM), 0.125; in the assay with Crenolanib + Alpelisib (first compound 0.01 µM) it was 0.897. The relative viability with Crenolanib + Alpelisib (first compound 0.03162 µM) was 1.01; with Crenolanib + Alpelisib (first compound 0.1 µM), 0.756; in the assay with Crenolanib + Alpelisib (first compound 0.3162 µM) it was 0.991; in the assay with Crenolanib + Alpelisib (first compound 1 µM) it was 0.605; with Tivantinib + Pictilisib (first compound 0.01 µM) it was 0.406; in the assay with Tivantinib + Pictilisib (first compound 0.03162 µM), 0.284. Besides, the relative viability worked out at 0.418 in the assay with Tivantinib + Pictilisib (first compound 0.1 µM); 0.294 in the assay with Tivantinib + Pictilisib (first compound 0.3162 µM); 0.178 in the assay with Tivantinib + Pemetrexed (first compound 0.01 µM); 0.177 with Tivantinib + Pemetrexed (first compound 0.03162 µM); 0.191 with Tivantinib + Pemetrexed (first compound 0.1 µM); 0.167 with Tivantinib + Pemetrexed (first compound 0.3162 µM).
For PC-14, the relative viability with Crenolanib + Palbociclib (first compound 0.01 µM) came out at 0.489; with Crenolanib + Palbociclib (first compound 0.03162 µM) it was 0.53; with Crenolanib + Palbociclib (first compound 0.1 µM), 0.473; with Crenolanib + Palbociclib (first compound 0.3162 µM), 0.593; with Crenolanib + Palbociclib (first compound 1 µM) it was 0.354; with Crenolanib + Alpelisib (first compound 0.01 µM), 1.01. The relative viability with Crenolanib + Alpelisib (first compound 0.03162 µM) worked out at 0.969; in the assay with Crenolanib + Alpelisib (first compound 0.1 µM), 0.858; in the assay with Crenolanib + Alpelisib (first compound 0.3162 µM), 1.04; with Crenolanib + Alpelisib (first compound 1 µM), 0.894; with Tivantinib + Pictilisib (first compound 0.01 µM) it was 0.584; in the assay with Tivantinib + Pictilisib (first compound 0.03162 µM), 0.718. The relative viability in the assay with Tivantinib + Pictilisib (first compound 0.1 µM) is 0.723; with Tivantinib + Pictilisib (first compound 0.3162 µM), 0.292; in the assay with Tivantinib + Pemetrexed (first compound 0.01 µM), 0.142; with Tivantinib + Pemetrexed (first compound 0.03162 µM), 0.123; with Tivantinib + Pemetrexed (first compound 0.1 µM), 0.147; in the assay with Tivantinib + Pemetrexed (first compound 0.3162 µM), 0.103.
As for CAL-12T, the relative viability in the assay with Crenolanib + Palbociclib (first compound 0.01 µM) was found to be 0.423; with Crenolanib + Palbociclib (first compound 0.03162 µM) it was 0.344; with Crenolanib + Palbociclib (first compound 0.1 µM), 0.411; in the assay with Crenolanib + Palbociclib (first compound 0.3162 µM), 0.457; in the assay with Crenolanib + Palbociclib (first compound 1 µM), 0.41; with Crenolanib + Alpelisib (first compound 0.01 µM), 1.33. In addition, the relative viability was 1.12 in the assay with Crenolanib + Alpelisib (first compound 0.03162 µM); 1.21 with Crenolanib + Alpelisib (first compound 0.1 µM); 1.49 in the assay with Crenolanib + Alpelisib (first compound 0.3162 µM); 1.2 in the assay with Crenolanib + Alpelisib (first compound 1 µM); 0.393 with Tivantinib + Pictilisib (first compound 0.01 µM); 0.377 in the assay with Tivantinib + Pictilisib (first compound 0.03162 µM). Besides, the relative viability is 0.377 with Tivantinib + Pictilisib (first compound 0.1 µM); 0.265 in the assay with Tivantinib + Pictilisib (first compound 0.3162 µM); 1.11 with Tivantinib + Pemetrexed (first compound 0.01 µM); 1.3 with Tivantinib + Pemetrexed (first compound 0.03162 µM); 1.18 in the assay with Tivantinib + Pemetrexed (first compound 0.1 µM); 1.21 in the assay with Tivantinib + Pemetrexed (first compound 0.3162 µM).
